Experimental data taken from patent US20240415845A1, “Compositions of Iboga Alkaloids and Methods of Treatment” (priority 2022, published 2024).

How the values were obtained:
[1] = test system: special operations veterans with combat and/or blast exposure; assay: Clinician-rated psychiatric assessments taken together (CAPS-5, MADRS, HAM-A); type: in vivo, human
Experimental: To further assess changes in comorbid psychiatric symptoms identified by the models, mean percent reduction, response rate, and remission rate according to the CAPS-5, MADRS and HAM-A (Table 1) were calculated. Response on the CAPS-5, MADRS, and HAM-A was defined as a reduction of at least 10 points (Mitchell, J. M. et al., Nat. Med. 27, 1025-1033(2021)), 50% (Leucht, S. et al., J. Affect. Disord. 210, 287-293 (2017)), and 50% (McIntyre, A. et al., Depress. Anxiety 24, 487-494 (2007)), respectively; remission as loss of diagnosis and a total score below 12 (Mitchell, J. M. et al. supra), <8 (Leucht, S. et al. supra), and <8(McIntyre, A. et al., supra), respectively. One participant's baseline scores met criteria for remission in all three scales and so were excluded from the calculation of response and remission rates, leaving 29 participants in these specific analyses.
The results were similar, with remission rates at one-month follow up of at least 67% (Table 1-3 in Example 1). To determine if the participants with more severe TBI history may be biasing results, a sensitivity analysis excluding the participants with non-mild TBI; results was done, again with the results largely unchanged (Table 1-4 in Example 1), with remission rates at one-month follow up of at least 85%.

[2] = test system: special operations veterans with combat and/or blast exposure; assay: World Health Organization Disability Assessment Schedule 2.0 (WHODAS 2.0); type: in vivo, human; conditions: for WHODAS 2.0 Total, effect size D (Cohen's D) / WHODAS 2.0 Total score: all participants; for WHODAS 2.0 Total score: baseline 30.2 ± 14.7, mean ± SD; for WHODAS 2.0 Self Care subscale: baseline 5.2% ± 9.2%; for WHODAS 2.0 Mobility subscale: baseline 14.7% ± 15.7%; for WHODAS 2.0 Interpersonal subscale: baseline 32.3% ± 20.4; for WHODAS 2.0 Community Participation subscale: baseline 35.6% ± 21.1%; for WHODAS 2.0 Cognition subscale: baseline 36.1% ± 14.6%; for WHODAS 2.0 Life Activities subscale: baseline 41.1% ± 24.8%
Text: The pre-specified primary outcome was change in the World Health Organization Disability Assessment Schedule 2.0 (WHODAS) (Gold L. H. et al., J. Am. Acad. Psychiatry Law 42, 9 (2014)) from baseline to post-treatment, with change from baseline to the one-month follow-up a secondary outcome. Additional pre-specified secondary outcomes included post-treatment changes on the Clinician Administered PTSD Scale (CAPS-5; Weathers, F. W. et al., Psychol. Assess., 30, 383-395 (2018)), Montgomery-Åsberg Depression Rating Scale (MADRS; Montgomery, S. A., Br. J. Psychiatry J. Ment. Sci., 134, 382-389 (1979)) and the Hamilton-Anxiety Rating Scale (HAM-A; Bruss, G. S., et al., Psychiatry Res., 53, 191-202 (1994)). […] An additional dose of magnesium was administered approximately 12 hours later. To assess the significance of post-treatment changes, linear mixed effects (LME) models were used for each outcome measure. False Discovery Rate (FDR; Benjamini, Y. et al., J. R. Stat. Soc. Ser. B Methodol., 57, 289-300 (1995)) was applied to correct for multiple comparisons.
With subjects in the fasting state, an intravenous infusion of 1 gram of magnesium sulfate was administered 1-2 hours prior to treatment. […] Medical staff (MD, RN, or EMT) were onsite at a ratio of at least 1 staff per 2 patients throughout treatment for monitoring and management, but no specific coaching or psychological support was provided during treatment.
Post treatment, each subject was assessed four days after treatment, one month after treatment, and, if willing, one year after treatment. The post-treatment assessments conducted at four days and at one month after treatment included neuropsychological testing, measures of PTSD, depression, anxiety, mystical experiences, functional imaging and EEG. Post-treatment assessments conducted at one year after treatment included PTSD, depression, and anxiety measures.
World Health Organization Disability Assessment Scale 2.0 (WHODAS 2.0) was used as a measure of function. WHODAS was used to assess the impact of health conditions across six life domains (cognition, mobility, self-care, interpersonal, life activities, and community participation) and it is sensitive to change over time (Gold, L. H., J. Am. Acad. Psychiatry Law 42, 9 (2014). Each item in the assessment is rated on a scale ranging from no problems to extreme problems (Üstün, T. B. et al., Measuring health and disability: Manual for WHO disability assessment schedule WHODAS 2.0. (World Health Organization, 2010)). To capture inter-individual variability in disability the WHODAS complex scoring method was used. Raw scores were converted to a metric ranging from 0(no disability) to 100 (full disability), by calculating the ratio of the participant's score relative to the maximum possible score in each domain as well as to the total score (Id.). A score of 20%-39% was considered mild, 40%-59% was moderate, 60%-79% was moderate-severe and 80%-100% was severe. Scores from baseline were compared to scores from one-month post treatment.
A measure of disability for health and disability on life functions is the World Health Organization Disability Assessment Schedule 2.0 (WHODAS). The items are designed to be sensitive to change due to a treatment, and the measure assesses disability over the past 30 days. The items measured are cognition, self-care, mobility, getting along. life activity, and participation in society. The WHODAS measure gives a rating of 1 for no disability, 2 for mild disability and 3 for moderate disability. FIG. 7A is a graph showing results from the World Health Organization Disability Assessment Scale 2.0 (WHODAS 2.0) assessment for each subject at baseline (prior to treatment), about one week after treatment, and one month after treatment. The dashed line represents the means of the individual scores. FIG. 7B is a bar graph of self-reported disability using the WHODAS total scores at baseline and one-month after treatment.

[3] = one-week and one-month post, 29 participants

CCC1CC2CC3c4[nH]c5ccc(OC)cc5c4CCN(C2)C13 (centres unmarked) [ibogaine, Ibogaine]
remission rates on CAPS-5, MADRS and HAM-A ([1]; one-month follow up, excluding participants with non-mild TBI): at least 85%
remission rates on CAPS-5, MADRS and HAM-A ([1]; one-month follow up, subgroups meeting criteria for the disorder assessed by the scale): at least 67%
remission rates on CAPS-5, MADRS and HAM-A [1, 3]: at least 83%
response rates on CAPS-5, MADRS and HAM-A [1, 3]: at least 93%
mean percent reductions on CAPS-5, MADRS and HAM-A ([1]; one-week and one-month post, all participants): at least 81%
remission rates for comorbid PTSD, depression, and anxiety ([1]; secondary analyses): around 80%
WHODAS 2.0 Cognition subscale, effect size D ([2]; baseline vs one-month): 2.38
WHODAS 2.0 Community Participation subscale, effect size D ([2]; baseline vs one-month): 1.78
WHODAS 2.0 Interpersonal subscale, effect size D ([2]; baseline vs one-month): 1.63
WHODAS 2.0 Life Activities subscale, effect size D ([2]; baseline vs one-month): 1.44
WHODAS 2.0 Mobility subscale, effect size D ([2]; baseline vs one-month): 0.83
WHODAS 2.0 Self Care subscale, effect size D ([2]; baseline vs one-month): 0.51
WHODAS 2.0 Total, effect size D (Cohen's D) ([2]; baseline vs one-month post): 2.20
WHODAS 2.0 Total, effect size D (Cohen's D) ([2]; baseline vs one-week post): 0.74
WHODAS 2.0 Cognition subscale, effect size D ([2]; baseline vs post-treatment): 0.96
WHODAS 2.0 Community Participation subscale, effect size D ([2]; baseline vs post-treatment): 0.53
WHODAS 2.0 Interpersonal subscale, effect size D ([2]; baseline vs post-treatment): 0.60
WHODAS 2.0 Life Activities subscale, effect size D ([2]; baseline vs post-treatment): 0.48
WHODAS 2.0 Mobility subscale, effect size D ([2]; baseline vs post-treatment): 0.53
WHODAS 2.0 Self Care subscale, effect size D ([2]; baseline vs post-treatment): 0.37
self-reported disability WHODAS total score (rating 1 no, 2 mild, 3 moderate disability) ([2]; one-month post treatment, baseline about 2.5 (FIG. 7B)): over 1
WHODAS 2.0 Total score ([2]; one-month post): 5.1
WHODAS 2.0 Self Care subscale ([2]; one-month): 1.0% ±
WHODAS 2.0 Mobility subscale ([2]; one-month): 1.3% ±
WHODAS 2.0 Interpersonal subscale ([2]; one-month): 4.8% ±
WHODAS 2.0 Community Participation subscale ([2]; one-month): 5.9% ±
WHODAS 2.0 Cognition subscale ([2]; one-month): 5.0% ±
WHODAS 2.0 Life Activities subscale ([2]; one-month): 9.1% ±
WHODAS 2.0 Total score ([2]; one-week post): 19.9
WHODAS 2.0 Self Care subscale ([2]; post-treatment): 1.9% ±
WHODAS 2.0 Mobility subscale ([2]; post-treatment): 7.2% ±
WHODAS 2.0 Interpersonal subscale ([2]; post-treatment): 21.7% ±
WHODAS 2.0 Community Participation subscale ([2]; post-treatment): 24.7% ±
WHODAS 2.0 Cognition subscale ([2]; post-treatment): 19.2% ±
WHODAS 2.0 Life Activities subscale ([2]; post-treatment): 31.6% ±
